In patent US10710978B2, “STK4 inhibitors for treatment of hematologic malignancies” (Dana-Farber Cancer Institute, Inc., priority 2015, dated 2020):

Biological target: STK4 (MST1) (Homo sapiens (Human), UniProt Q13043)
Experiment: Z-lyte biochemical IC50 assay (Invitrogen)
Details: ATP concentration matched the Km
Protocol: STK4 (MST1), STK3 (MST2); STK24 (MST3) and MST4 Assays
Biochemical IC50s were measured at Invitrogen using Z-lyte technology. Briefly, for STK4, the 2×STK4 (MST1)/Ser/Thr 07 mixture was prepared in 50 mM HEPES pH 7.5, 0.01% BRIJ35, 10 mM MgCl2, 1 mM EGTA. The final 10 μL Kinase Reaction consisted of 6.25-160 ng STK4 (MST1) and 2 μM Ser/Thr 07 in 50 mM HEPES pH 7.5, 0.01% BRIJ-35, 10 mM MgCl2, 1 mM EGTA. After the 1 hour Kinase Reaction incubation, 5 μL of a 1:100000 dilution of Development Reagent A was added. Compounds were screened in a 10 point titration with 3-fold serial dilutions starting at a concentration of 10 μM. The biochemical IC50s against other STK family members were measured similarly. The ATP concentration used matched the Km for each kinase.

Chain of STK4 (MST1) (Q13043 whole entry): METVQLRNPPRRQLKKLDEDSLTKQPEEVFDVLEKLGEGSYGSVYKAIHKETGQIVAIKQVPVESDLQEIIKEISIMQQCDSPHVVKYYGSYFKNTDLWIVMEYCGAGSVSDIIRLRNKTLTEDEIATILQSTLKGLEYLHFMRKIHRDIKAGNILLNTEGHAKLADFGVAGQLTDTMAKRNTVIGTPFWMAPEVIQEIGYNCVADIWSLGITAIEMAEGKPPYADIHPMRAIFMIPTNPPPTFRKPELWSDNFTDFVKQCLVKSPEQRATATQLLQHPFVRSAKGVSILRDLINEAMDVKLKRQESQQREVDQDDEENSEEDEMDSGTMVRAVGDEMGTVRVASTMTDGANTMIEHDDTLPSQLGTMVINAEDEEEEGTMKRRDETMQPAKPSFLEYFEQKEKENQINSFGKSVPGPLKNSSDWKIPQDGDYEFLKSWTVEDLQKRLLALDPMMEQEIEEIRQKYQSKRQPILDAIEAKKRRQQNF

| Structure (SMILES) | IC50 [nM] |
| --- | --- |
| Cc1cc(N2CCOCC2)cc2[nH]c(-c3c(NC[C@@H](O)c4cccc(Cl)c4)cc[nH]c3=O)nc12 [BMS536924, reference compound] | 40 to 200 |
| Nc1ncc(-c2cc(F)ccc2[N+](=O)[O-])cc1-c1ccc2c(c1)CCNC2=O [Compound I-7, 6-(2-amino-5-(5-fluoro-2-nitrophenyl)pyridin-3-yl)-3,4-dihydroisoquinolin-1(2H)-one] | > 900 |
| COc1ccncc1-c1cnc(N)c(-c2ccc3c(c2)CCNC3=O)c1 [Compound I-8, 6-(6-amino-4′-methoxy-[3,3′-bipyridin]-5-yl)-3,4-dihydroisoquinolin-1(2H)-one] | > 900 |
| N#Cc1cc(-c2cc(-c3cc([N+](=O)[O-])ccc3F)cnc2N)ccc1O [Compound I-11, 5-(2-amino-5-(2-fluoro-5-nitrophenyl)pyridin-3-yl)-2-hydroxybenzonitrile] | > 900 |
| Cn1cnc2c(-c3cnc(N)c(-c4ccc5c(c4)CCNC5=O)c3)cccc21 [Compound I-14, 6-(2-amino-5-(1-methyl-1H-benzo[d]imidazol-4-yl)pyridin-3-yl)-3,4-dihydroisoquinolin-1(2H)-one] | 40 to 200 |
| Nc1ncc(-c2cc(F)cc([N+](=O)[O-])c2)cc1-c1ccc2c(c1)CCNC2=O [Compound I-17, 6-(2-amino-5-(3-fluoro-5-nitrophenyl)pyridin-3-yl)-3,4-dihydroisoquinolin-1(2H)-one] | 40 to 200 |
| Nc1ncc(-c2cc([N+](=O)[O-])cc(F)c2F)cc1-c1ccc2c(c1)CCNC2=O [Compound I-18, 6-(2-amino-5-(2,3-difluoro-5-nitrophenyl)pyridin-3-yl)-3,4-dihydroisoquinolin-1(2H)-one] | 40 to 200 |
| NC(=O)c1ccc(-c2cc(-c3cc([N+](=O)[O-])ccc3F)cnc2N)cc1Cl [Compound I-30, 4-(2-amino-5-(2-fluoro-5-nitrophenyl)pyridin-3-yl)-2-chlorobenzamide] | 200 to 900 |
| NC(=O)c1ccc(-c2cc(-c3cc([N+](=O)[O-])ccc3F)cnc2N)cc1 [Compound I-31, 4-(2-amino-5-(2-fluoro-5-nitrophenyl)pyridin-3-yl)benzamide] | 200 to 900 |
| Nc1ncc(-c2cc([N+](=O)[O-])cnc2F)cc1-c1ccc2c(c1)CCNC2=O [Compound I-39, 6-(6-amino-2′-fluoro-5′-nitro-[3,3′-bipyridin]-5-yl)-3,4-dihydroisoquinolin-1(2H)-one] | 200 to 900 |
| Nc1ncc(-c2ccc3ncsc3c2)cc1-c1ccc2c(c1)CCNC2=O [Compound I-44, 6-(2-amino-5-(benzo[d]thiazol-6-yl)pyridin-3-yl)-3,4-dihydroisoquinolin-1(2H)-one] | 40 to 200 |
| C#Cc1cc(F)c(-c2cnc(N)c(-c3ccc4c(c3)CCNC4=O)c2)cc1[N+](=O)[O-] [Compound I-45, 6-(2-amino-5-(4-ethynyl-2-fluoro-5-nitrophenyl)pyridin-3-yl)-3,4-dihydroisoquinolin-1(2H)-one] | 40 to 200 |
| CCOc1cc(S(=O)(=O)N(C)C2CC2)ccc1-c1cnc(N)c(-c2ccc3c(c2)CCNC3=O)c1 [Compound I-47, 4-(6-amino-5-(1-oxo-1,2,3,4-tetrahydroisoquinolin-6-yl)pyridin-3-yl)-N-cyclopropyl-3-ethoxy-N-methylbenzenesulfonamide] | < 40 |
| CC(C)Oc1cc(S(=O)(=O)N(C)C2CC2)ccc1-c1cnc(N)c(-c2ccc3c(c2)CCNC3=O)c1 [Compound I-48, 4-(6-amino-5-(1-oxo-1,2,3,4-tetrahydroisoquinolin-6-yl)pyridin-3-yl)-N-cyclopropyl-3-isopropoxy-N-methylbenzenesulfonamide] | < 40 |
| COc1cc(S(=O)(=O)NC2CC2)ccc1-c1cnc(N)c(-c2ccc3c(c2)CCNC3=O)c1 [Compound I-49, 4-(6-amino-5-(1-oxo-1,2,3,4-tetrahydroisoquinolin-6-yl)pyridin-3-yl)-N-cyclopropyl-3-methoxybenzenesulfonamide] | < 40 |
| COc1cc(S(=O)(=O)N(C)C2CCCCC2)ccc1-c1cnc(N)c(-c2ccc3c(c2)CCNC3=O)c1 [Compound I-52, 4-(6-amino-5-(1-oxo-1,2,3,4-tetrahydroisoquinolin-6-yl)pyridin-3-yl)-N-cyclohexyl-3-methoxy-N-methylbenzenesulfonamide] | 40 to 200 |
| COc1cc(S(=O)(=O)N(C)C2CCOCC2)ccc1-c1cnc(N)c(-c2ccc3c(c2)CCNC3=O)c1 [Compound I-53, 4-(6-amino-5-(1-oxo-1,2,3,4-tetrahydroisoquinolin-6-yl)pyridin-3-yl)-3-methoxy-N-methyl-N-(tetrahydro-2H-pyran-4-yl)benzenesulfonamide] | 40 to 200 |
| Nc1ncc(-c2ccc([N+](=O)[O-])cc2F)cc1-c1ccc2c(c1)CCNC2=O [Compound I-54, 6-(2-amino-5-(2-fluoro-4-nitrophenyl)pyridin-3-yl)-3,4-dihydroisoquinolin-1(2H)-one] | 40 to 200 |
| Nc1ncc(-c2cccc3scnc23)cc1-c1ccc2c(c1)CCNC2=O [Compound I-55, 6-(2-amino-5-(benzo[d]thiazol-4-yl)pyridin-3-yl)-3,4-dihydroisoquinolin-1(2H)-one] | 40 to 200 |
| Nc1ncc(-c2cncc3ncsc23)cc1-c1ccc2c(c1)CCNC2=O [Compound I-56, 6-(2-amino-5-(thiazolo[4,5-c]pyridin-7-yl)pyridin-3-yl)-3,4-dihydroisoquinolin-1(2H)-one] | 200 to 900 |
| Nc1ncc(-c2ccc(F)c3ncsc23)cc1-c1ccc2c(c1)CCNC2=O [Compound I-57, 6-(2-amino-5-(4-fluorobenzo[d]thiazol-7-yl)pyridin-3-yl)-3,4-dihydroisoquinolin-1(2H)-one] | < 40 |
| COc1cc(C#N)ccc1-c1cnc(N)c(-c2ccc3c(c2)CCNC3=O)c1 [Compound I-61, 4-(6-amino-5-(1-oxo-1,2,3,4-tetrahydroisoquinolin-6-yl)pyridin-3-yl)-3-methoxybenzonitrile] | < 40 |

The remaining lines, values ahead:

| IC50 [nM] | Structure (SMILES) |
| --- | --- |
| < 40 | Nc1ncc(-c2cccc(NS(=O)(=O)C3CC3)c2)cc1-c1ccc2c(c1)CCNC2=O [Compound I-58, N-(3-(6-amino-5-(1-oxo-1,2,3,4-tetrahydroisoquinolin-6-yl)pyridin-3-yl)phenyl) cyclopropanesulfonamide] |
| < 40 | Nc1ncc(-c2cccc(-c3nccs3)c2)cc1-c1ccc2c(c1)CCNC2=O [Compound I-59, 6-(2-amino-5-(3-(thiazol-2-yl)phenyl)pyridin-3-yl)-3,4-dihydroisoquinolin-1(2H)-one] |
| 40 to 200 | COc1cc(-c2nccs2)ccc1-c1cnc(N)c(-c2ccc3c(c2)CCNC3=O)c1 [Compound I-60, 6-(2-amino-5-(2-methoxy-4-(thiazol-2-yl)phenyl)pyridin-3-yl)-3,4-dihydroisoquinolin-1(2H)-one] |
| < 40 | CN1CCc2cc(-c3cc(-c4ccc(S(=O)(=O)N(C)C5CC5)cc4F)cnc3N)ccc2C1=O [Compound I-62, 4-(6-amino-5-(2-methyl-1-oxo-1,2,3,4-tetrahydroisoquinolin-6-yl)pyridin-3-yl)-N-cyclopropyl-3-fluoro-N-methylbenzenesulfonamide] |
| < 40 | CN(C1CC1)S(=O)(=O)c1ccc(-c2cnc(N)c(-c3ccc4c(=O)[nH]cnc4c3)c2)c(F)c1 [Compound I-63, 4-(6-amino-5-(4-oxo-3,4-dihydroquinazolin-7-yl)pyridin-3-yl)-N-cyclopropyl-3-fluoro-N-methylbenzenesulfonamide] |
| 40 to 200 | Nc1ncc(-c2cccc3ncsc23)cc1-c1ccc2c(=O)[nH]cnc2c1 [Compound I-64, 7-(2-amino-5-(benzo[d]thiazol-7-yl)pyridin-3-yl)quinazolin-4(3H)-one] |
| 40 to 200 | Nc1ncc(-c2ccc(NS(=O)(=O)C3CC3)cc2OCc2ccccc2)cc1-c1ccc2c(c1)CCNC2=O [Compound I-66, N-(4-(6-amino-5-(1-oxo-1,2,3,4-tetrahydroisoquinolin-6-yl)pyridin-3-yl)-3-(benzyloxy)phenyl) cyclopropanesulfonamide] |
| < 40 | CC(C)Oc1cc(NS(=O)(=O)C2CC2)ccc1-c1cnc(N)c(-c2ccc3c(c2)CCNC3=O)c1 [Compound I-67, N-(4-(6-amino-5-(1-oxo-1,2,3,4-tetrahydroisoquinolin-6-yl)pyridin-3-yl)-3-isopropoxyphenyl) cyclopropanesulfonamide] |
| < 40 | CC(C)Oc1cc(S(=O)(=O)N(C)C2CC2)ccc1-c1cnc(N)c(-c2ccc3c(c2)CNC3=O)c1 [Compound I-68, 4-(6-amino-5-(1-oxoisoindolin-5-yl)pyridin-3-yl)-N-cyclopropyl-3-isopropoxy-N-methylbenzenesulfonamide] |
| < 40 | Nc1ncc(-c2ccc(NS(=O)(=O)C3CC3)cc2OC2CCCC2)cc1-c1ccc2c(c1)CCNC2=O [Compound I-69, N-(4-(6-amino-5-(1-oxo-1,2,3,4-tetrahydroisoquinolin-6-yl)pyridin-3-yl)-3-(cyclopentyloxy)phenyl) cyclopropanesulfonamide] |
| 40 to 200 | Nc1ncc(-c2ccc(F)c3ncsc23)cc1-c1ccc2c(c1)CNC2=O [Compound I-70, 5-(2-amino-5-(4-fluorobenzo[d]thiazol-7-yl)pyridin-3-yI)isoindolin-1-one] |
| 200 to 900 | Nc1ncc(-c2cccc(S(N)(=O)=O)c2)cc1-c1ccc2c(c1)CCNC2=O [Compound I-71, 3-(6-amino-5-(1-oxo-1,2,3,4-tetrahydroisoquinolin-6-yl)pyridin-3-yl)benzenesulfonamide] |
| 40 to 200 | Nc1ncc(-c2cc3scnc3cc2F)cc1-c1ccc2c(c1)CCNC2=O [Compound I-73, 6-(2-amino-5-(5-fluorobenzo[d]thiazol-6-yl)pyridin-3-yl)-3,4-dihydroisoquinolin-1(2H)-one] |
